This is an account of results in ChEMBL document CHEMBL1201862, “PubChem BioAssay data set” (2004).

Among the test systems are EKVX; TK-10; U-251; SK-OV-3; COLO 205; K562; IGROV-1; SN12C; NCI-H460; SK-MEL-28; DMS-273; HOP-18; KM12; OVCAR-3; DU-145; MDA-MB-435; MDA-N; PC-3; MDA-MB-231; T47D.
Common to all, as to assay: NCI-60 cell line screen, 48 h

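These data come from cells grown in 96-well plates and exposed to compound for 48 hours at five concentrations. Here, GI50 denotes the concentration required for 50% inhibition of growth.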 Activity calls are given as the source filed them. Rule as the data show it: active = GI50 up to about 1.1 µM and inactive = higher. A value given as a limit tells only on which side of the number the result lay.

Consider `O=C(Nc1cccc2ccccc12)Oc1ccccc1C1CCCCC1`, for which the GI50 in the assay with EKVX was 22.6 µM (inactive); in the assay with TK-10 it was 23 µM (inactive); with U-251, 13.4 µM (inactive); with SK-OV-3, 30.8 µM (inactive); in the assay with COLO 205, > 10 µM (inactive); in the assay on K562, 24.2 µM (inactive). For the same molecule, the GI50 in the assay on IGROV-1 was 23 µM (inactive); in the assay on SN12C, 16 µM (inactive); in the assay with NCI-H460, 18.5 µM (inactive); in the assay on SK-MEL-28, 22.6 µM (inactive); with DMS-273 it was 21.2 µM (inactive); in the assay on HOP-18 it was 16.3 µM (inactive). Moreover, the GI50 in the assay on KM12 was 20.2 µM (inactive); in the assay on OVCAR-3, 18.6 µM (inactive).
With `C=C(CN(C)C)C(=O)c1ccc(OC2OC(COC(C)=O)C(OC(C)=O)C(OC(C)=O)C2OC(C)=O)cc1` (stereo not drawn), the GI50 with DU-145 is 17.5 µM (inactive); in the assay on EKVX, 11.8 µM (inactive); in the assay on TK-10, 3.39 µM (inactive); with U-251, 15.8 µM (inactive); in the assay with SK-OV-3 it was 19.4 µM (inactive); with MDA-MB-435 it was 6.18 µM (inactive). In addition, the GI50 in the assay with COLO 205 is 0.753 µM (active); in the assay on K562, 0.533 µM (active); in the assay on MDA-N, 3.03 µM (inactive); in the assay with IGROV-1, 13.4 µM (inactive); with PC-3 it was 15.3 µM (inactive); with SN12C, 9.98 µM (inactive). The GI50 in the assay on NCI-H460 was 20.1 µM (inactive); in the assay with SK-MEL-28, 2.52 µM (inactive); in the assay with DMS-273, 6.85 µM (inactive); with HOP-18 it was 3.54 µM (inactive); with KM12 it was 17.6 µM (inactive); with MDA-MB-231, 5 µM (inactive). Also, the GI50 in the assay with OVCAR-3 is 2.25 µM (inactive); in the assay on T47D it was 2.9 µM (inactive).
For the molecule `CO[C@H]1ON=C(c2c(C)cc(C)cc2C)[C@@H]1C1(c2ccccc2)ON=C(c2c(C)cc(C)cc2C)O1` (stereo partly drawn), the GI50 in the assay with EKVX, in the assay on TK-10, in the assay on U-251, in the assay on SK-OV-3, in the assay with COLO 205 and in the assay with K562 was > 100 µM (inactive) in each case. For the same molecule, the GI50 with IGROV-1, with SN12C, with NCI-H460, with SK-MEL-28, in the assay with DMS-273 and in the assay with HOP-18 was > 100 µM (inactive) throughout. In the assay with KM12, the GI50 was > 100 µM (inactive).
On to `C#CC[N+](CCO)(CCO)CCCCCCCCCCCCCCCCCC`, for which the GI50 in the assay on EKVX is 21.7 µM (inactive); in the assay with U-251 it was 6.47 µM (inactive); in the assay with SK-OV-3, 17.6 µM (inactive); with COLO 205, 11.2 µM (inactive); with K562, 5.24 µM (inactive); in the assay with IGROV-1 it was 2.18 µM (inactive). Further, the GI50 with SN12C is 16.4 µM (inactive); in the assay on NCI-H460 it was 9.53 µM (inactive); in the assay with SK-MEL-28 it was 16.5 µM (inactive); in the assay on DMS-273 it was 4.9 µM (inactive); in the assay on HOP-18, 9.33 µM (inactive); in the assay with KM12, 3.55 µM (inactive). The GI50 in the assay with OVCAR-3 is 13.5 µM (inactive).
Consider `C=C(/C=C/C=C(\C)CCC=C(C)C)[C@@H]1CC[C@]2([C@H](CCCO)/C(=C(/C)C=O)CC[C@]2(C)O)[C@@H]1O`, for which the GI50 with EKVX was 22.4 µM (inactive); with TK-10, 31.3 µM (inactive); with U-251, 14.9 µM (inactive); with SK-OV-3 it was > 100 µM (inactive); in the assay on COLO 205, 11 µM (inactive); with K562, 11.2 µM (inactive). Moreover, the GI50 in the assay with IGROV-1 was 32.2 µM (inactive); in the assay on SN12C, 17.1 µM (inactive); in the assay on NCI-H460 it was 9.71 µM (inactive); in the assay on SK-MEL-28, 15.1 µM (inactive); with DMS-273, 14.6 µM (inactive); in the assay on HOP-18 it was 23.9 µM (inactive). Also, the GI50 in the assay with KM12 is 1.41 µM (inactive).
As for `CC(C)(C)OC(=O)NC1CCC(C(C)(C)C)CC1` (stereo not drawn), the GI50 in the assay on EKVX was > 64.1 µM (inactive); in the assay on U-251 it was 38.4 µM (inactive); in the assay with SK-OV-3 it was > 100 µM (inactive); in the assay with COLO 205 it was > 65.5 µM (inactive); with K562 it was 51.1 µM (inactive); in the assay on IGROV-1 it was > 100 µM (inactive). Besides, the GI50 with SN12C is > 77.8 µM (inactive); in the assay with NCI-H460, > 77.3 µM (inactive); in the assay with SK-MEL-28 it was > 100 µM (inactive); in the assay with DMS-273, > 51.2 µM (inactive); in the assay with HOP-18, > 82.8 µM (inactive); in the assay with KM12, > 81.7 µM (inactive). In the assay with OVCAR-3, the GI50 was 58.6 µM (inactive).
For `CC(=O)OC1C(O)C(C)OC(OC(=O)C2CCC3C(C2)OC2(CC(OC(=O)/C=C/c4ccccc4)C(C)CO2)C32CO2)C1OC1OC(C)C(O)C(O)C1O` (stereo not drawn), the GI50 is 0.0417 µM (active) with EKVX; 0.04 µM (active) with U-251; 0.0586 µM (active) in the assay with SK-OV-3; 0.0341 µM (active) with COLO 205; 0.0383 µM (active) with K562; 0.0378 µM (active) with IGROV-1. In addition, the GI50 with SN12C was 0.0514 µM (active); in the assay on NCI-H460 it was 0.0448 µM (active); in the assay with SK-MEL-28 it was 0.0355 µM (active); in the assay on DMS-273, 0.0416 µM (active); in the assay on HOP-18, 0.113 µM (active); in the assay on KM12, 0.0371 µM (active). The GI50 in the assay on OVCAR-3 is 0.0578 µM (active).
Take `[O-][S+]1[C@H](c2ccccc2)c2c(-c3ccccc3)sc(-c3ccccc3)c2[C@@H]1c1ccccc1` (stereo partly drawn): the GI50 with EKVX was 0.286 µM (active); with TK-10, 9.1 µM (inactive); in the assay with U-251 it was 9.44 µM (inactive); with SK-OV-3 it was > 100 µM (inactive); in the assay on COLO 205, 23.1 µM (inactive); in the assay on K562 it was 6.44 µM (inactive). For the same molecule, the GI50 in the assay on IGROV-1 is > 100 µM (inactive); with SN12C, 25.3 µM (inactive); in the assay with NCI-H460 it was 17.1 µM (inactive); in the assay with SK-MEL-28, 96.6 µM (inactive); in the assay on DMS-273, > 100 µM (inactive); in the assay with HOP-18, 11.4 µM (inactive). Moreover, the GI50 with KM12 was 12.5 µM (inactive); in the assay on OVCAR-3, > 100 µM (inactive).
